Data reported in US20260272879A1, “ANION-BINDING AROMATIC OLIGOAMIDE MACROCYCLES AND METHODS OF MAKING AND USING SAME” (The Research Foundation for The State University of New York, priority 2023, published 2026).

Assays:
[1] = Isothermal titration calorimetry (ITC), PF6^−; format: binding; conditions: 25° C.
Procedure: (§1) Isothermal titration calorimetry (ITC) experiments were performed using a MicroCal VP-ITC. ITC experiments were conducted by adding ~1.5 mL of a solution containing c5a to the sample cell. Followed by titrating 10 μL aliquots of a solution containing the corresponding TBA·X salt (~10-14× concentration of c5a solution) from the syringe into the sample cell. Heats of dilution were obtained by titrating 10 μL aliquots of the TBA·X solution from the syringe into the sample cell in the absence of c5a. The heats of dilution were subtracted from the raw data. ITC data processing and curve fitting was done using the Origin program (MicroCal).
(§2) Two-step competition ITC experiments for determining the Ka of c5a and iodide. In CH3CN:CHCl3 (5:95, v/v), the binding affinity of c5a for I^− was too high to be determined with direct NMR or ITC titration. Instead, two-step competition ITC experiments with Cl^− as the competitor were performed.

[2] = 1H NMR titration, binding of bromide; conditions: DMSO-d6:CDCl3 (15:85, v/v), 25° C., NMR titration (protons a and b)
Procedure: […] […] The titration data were collected by monitoring the changes in chemical shifts of the backbone amide protons and the inner aromatic protons with varying ratios of the anion guests. Job plots indicate that these linear oligoamides and their anion guests bind in a 1:1 stoichiometry.
(§3) ^1H NMR titration methods. Titrations of c5a and c5b with anions as their tetra-n-butylammonium (TBA), tetra-ethylammonium (TEA) and tetra-methylammonium (TMA) salts were carried out by ^1H NMR (400 MHz) at 25° C. 0.4 mL of corresponding hosts solutions were prepared in the rubber-cap NMR tubes. Aliquots of concentrated guest solution containing hosts were added into the NMR tubes using 20 microliter pipette. An initial ^1H NMR spectrum was collected and additional spectra were obtained after each injection of guest solution. All titration ^1H NMR spectra were stacked together and the chemical shifts of the internal aromatic CH proton were then fitted to 1:1 binding model using BindFit v0.5 (http://app.supramolecular.org/bindfit/) to evaluate binding constants to anions.

[3] = system: Human bronchial epithelial (HBE) cells from cystic fibrosis (CF) patients; experiment: Airway surface liquid (ASL) thickness, confocal imaging; format: cell-based; conditions: CF HBE cultures, c5a 5 μM with 1% DMSO in PBS apically daily for five days
Procedure: Primary Cell Culture. Human bronchial epithelial (HBE) cells from cystic fibrosis (CF) patients (DF508 homozygous) were obtained from the UNC-CF Tissue Culture Core under the auspices of protocols approved by the UNC Institutional Review Board using previously reported methodologies. Cultures on 12-mm permeable supports (Transwell-Clear; Costar) were maintained in a well-humidified (>95%) incubator (5% CO2) at 37° C. during cellular differentiation (3-4 weeks after plating).
Confocal imaging studies. CF HBE cultures were treated with apically with c5a (5 μM in 1% DMSO) or vehicle control (1% DMSO in PBS) daily for 5 days prior to imaging. The height of the luminal airway surface layer (ASL) was visualized by adding a cell-impermeant dye (Texas Red-dextran 70 kDa; 0.1%) to the c5a and vehicle control on the evening prior to imaging. […] The thickness of the ASL layer in c5a and control cultures were measured by high-speed X-Z confocal scanning. […]
Human bronchial epithelial (HBE) cells isolated from CF patients were cultured at the time of lung transplant as a model system for diseased airways. […] The thickness of the ASL layer on the surface of the HBE cell layer can be conveniently measured by determining the thickness of the fluorescently-labeled fluid layer on the airway surface using X-Z confocal scanning microscopy (FIG. 117b). […]

[4] = Isothermal titration calorimetry (ITC), IO4^−; format: binding; conditions: 25° C.
Procedure: as §1, §2

Solubility = format: physicochemical; conditions: CHCl3, CH2Cl2, DMF, and DMSO
[5] = Isothermal titration calorimetry (ITC), BF4^−; format: binding; conditions: DMSO:CHCl3 (5:95, v/v), 25° C.
Procedure: as §1, §2

[6] = Isothermal titration calorimetry (ITC), Br^−; format: binding; conditions: 25° C.
Procedure: as §1, §2

[7] = 1H NMR titration, binding of PF6^−; conditions: DMSO-d6:CDCl3 (15:85, v/v), 25° C., NMR titration (protons a and b)
Procedure: as §3

[8] = Isothermal titration calorimetry (ITC), I^−; format: binding; conditions: 25° C.
Procedure: as §1, §2

[9] = Isothermal titration calorimetry (ITC), NO3^−; format: binding; conditions: DMSO:CHCl3 (5:95, v/v), 25° C.
Procedure: as §1, §2

[10] = 1H NMR titration, binding of nitrate; conditions: 25° C.
Source text: Anion binding with four amides, i.e., L1mer-L4mer, was studied in the mixed solvents of CD3CN/CDCl3 (1/9, v/v) by titrating an amide host with 0 to 5 equivalents of tetrabutylammonium (n-Bu4N^+) salt of the corresponding anion. The binding of chloride, bromide, iodide, and nitrate was examined with the four amides in CDCl3 containing 10% CD3CN. The titration data were collected by monitoring the changes in chemical shifts of the backbone amide protons and the inner aromatic protons with varying ratios of the anion guests. Job plots indicate that these linear oligoamides and their anion guests bind in a 1:1 stoichiometry.
The binding of anions by macrocycle 7c was examined in CH3CN/CHCl3 (6/4, v/v) and in DMSO by titrating with various equivalents of the salts of chloride, iodide. nitrate, and dihydrogen phosphate, with tetrabutylammonium (n-Bu4N^+) being the counterion ion. Following the changes in the chemical shifts of backbone amide protons and “inner” aromatic protons allowed the determination of binding constants.
as §3

Structure (SMILES): CCCCCCCCOCC(C)(C)C(=O)Nc1ccc2cc1C(=O)Nc1ccc(NC(=O)C(C)(C)COCCCCCCCC)c(c1)C(=O)Nc1ccc(NC(=O)C(C)(C)COCCCCCCCC)c(c1)C(=O)Nc1ccc(NC(=O)C(C)(C)COCCCCCCCC)c(c1)C(=O)Nc1ccc(NC(=O)C(C)(C)COCCCCCCCC)c(c1)C(=O)N2 [c5a]
- Association constant Ka, 1:1 complex with PF6^− ([1]; CH3CN:CHCl3 (5:95, v/v)): (1.23 ± 0.17) × 10^7 M^−1
- Association constant Ka, 1:1 complex with PF6^− ([1]; DMSO:CHCl3 (5:95, v/v)): (2.80 ± 0.20) × 10^4 M^−1
- Association constant Ka, 1:1 complex with Br^− [2]: (9.82 ± 1.08) × 10^3 M^−1
- increase of ASL thickness vs control CF [3]: more than 50%
- ASL thickness ([3]; X-Z confocal): 7.8±1.7 μm
- Association constant Ka, 1:1 complex with IO4^− ([4]; CH3CN:CHCl3 (5:95, v/v)): (2.54 ± 0.22) × 10^7 M^−1
- Association constant Ka, 1:1 complex with IO4^− ([4]; DMSO:CHCl3 (5:95, v/v)): (1.72 ± 0.05) × 10^5 M^−1
- solubility in organic solvents (Solubility): soluble
- Association constant Ka, 1:1 complex with BF4^− [5]: (8.70 ± 0.40) × 10^5 M^−1
- Association constant Ka, 1:1 complex with Br^− ([6]; CH3CN:CHCl3 (5:95, v/v)): (1.79 ± 0.34) × 10^7 M^−1
- Association constant Ka, 1:1 complex with Br^− ([6]; DMSO:CHCl3 (5:95, v/v)): (1.37 ± 0.04) × 10^4 M^−1
- Association constant Ka, 1:1 complex with PF6^− [7]: not detected
- Association constant Ka, 1:1 complex with I^− ([8]; CH3CN:CHCl3 (5:95, v/v), two-step competition ITC with Cl^− as the competitor): (6.67 ± 0.81) × 10^7 ^f M^−1
- Association constant Ka, 1:1 complex with I^− ([8]; CH3CN:CHCl3 (5:95, v/v), ITC): (7.78 ± 4.26) × 10^7 M^−1
- Association constant Ka, 1:1 complex with I^− ([8]; DMSO-d6:CDCl3 (15:85, v/v) column, ITC measurements (footnote d)): (1.18 ± 0.03) × 10^4 ^d M^−1
- Association constant Ka, 1:1 complex with I^− ([8]; DMSO:CHCl3 (5:95, v/v), ITC): (1.83 ± 0.08) × 10^5 M^−1
- Association constant Ka, 1:1 complex with NO3^− [9]: (1.30 ± 0.10) × 10^6 M^−1
- Association constant Ka, 1:1 complex with NO3^− ([10]; CD3CN:CDCl3 (80:20, v/v), NMR titration): >10^6 M^−1
- Association constant Ka, 1:1 complex with NO3^− ([10]; DMSO-d6:CDCl3 (15:85, v/v), NMR titration (protons a and b)): (1.57 ± 0.13) × 10^5 M^−1
